The structures appear in SMILES notation. Bounds are passed on as bounds.

As usually defined, the IC50 is the concentration needed to halve the response being measured.

In the experiment the target is Human complement C1s enzyme (Homo sapiens (Human), UniProt P09871). Put plainly: Human C1s enzyme assay. The class given is biochemical. The following applies: Human C1s enzyme assay of Example 3; read-out: IC50 (Stars). The method, then: Human complement C1s enzyme (purified from human serum, Complement Technology, Inc.) at 1.16 nM final concentration was incubated with test compound at various concentrations for 5 min at room temperature in 50 mM Tris, 1 M NaCl, pH 7.5. A synthetic substrate Z-L-Lys-SBzl and DTNB (Ellman's reagent) were added to final concentrations of 100 μM each. Absorbance at 405 nm (A405) was recorded at 30 second intervals for 30 min using a microplate spectrophotometer. IC50 values were calculated by nonlinear regression of complement C1s reaction rates as a function of test compound concentration.
Chain of Human complement C1s enzyme (P09871 438-688 limits assumed): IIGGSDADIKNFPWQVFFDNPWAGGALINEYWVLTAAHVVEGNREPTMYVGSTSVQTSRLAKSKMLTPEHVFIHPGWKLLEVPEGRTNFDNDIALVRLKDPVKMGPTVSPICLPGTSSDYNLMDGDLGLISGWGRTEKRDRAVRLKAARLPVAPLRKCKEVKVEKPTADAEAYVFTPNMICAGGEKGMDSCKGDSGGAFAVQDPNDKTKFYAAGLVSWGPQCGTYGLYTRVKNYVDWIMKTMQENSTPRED
Chain of Human complement C1s enzyme (P09871 16-437 partner limits assumed): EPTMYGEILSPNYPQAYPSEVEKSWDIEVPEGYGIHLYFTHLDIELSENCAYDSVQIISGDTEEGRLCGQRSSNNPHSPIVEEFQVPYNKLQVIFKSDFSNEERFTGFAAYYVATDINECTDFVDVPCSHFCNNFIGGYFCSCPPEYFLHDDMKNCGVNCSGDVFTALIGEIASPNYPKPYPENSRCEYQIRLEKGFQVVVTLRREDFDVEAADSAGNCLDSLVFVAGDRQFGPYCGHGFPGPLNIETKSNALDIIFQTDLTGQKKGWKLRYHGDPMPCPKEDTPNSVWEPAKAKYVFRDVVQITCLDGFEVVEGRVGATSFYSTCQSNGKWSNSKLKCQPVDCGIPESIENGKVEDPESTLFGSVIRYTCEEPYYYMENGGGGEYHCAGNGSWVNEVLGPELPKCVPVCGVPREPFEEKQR
On to `C[C@H](O)[C@H](O)[C@@H](O)[C@@H](O)CNCC(=O)NCCOC[C@@]12C[C@@H]1N(C(=O)CNC(=O)CCCOc1ccccc1)[C@H](C(=O)N[C@H](C)c1cc(C(=N)N)cs1)C2` [Compound 2, (1S,3S,5R)—N—((R)-1-(4-carbamimidoylthiophen-2-yl)ethyl)-2-((4-phenoxybutanoyl)glycyl)-5-((2-(2-(((2S,3S,4S,5S)-2,3,4,5-tetrahydroxyhexyl)amino)acetamido)ethoxy)methyl)-2-azabicyclo[3.1.0]hexane-3-carboxamide], for which the IC50 is under 100 nM.

As to `N=C(N)c1csc(CNC(=O)[C@@H]2C[C@@H](OC(F)F)CN2C(=O)CNC(=O)c2ccc(Oc3ccc(F)cc3)cc2)c1` [Compound 3, (2S,4R)—N-((4-carbamimidoylthiophen-2-yl)methyl)-4-(difluoromethoxy)-1-((4-(4-fluorophenoxy)benzoyl)glycyl)pyrrolidine-2-carboxamide], the IC50 was under 100 nM.

Turning to `C[C@@H](NC(=O)[C@@H]1C[C@]2(C)C[C@@H]2N1C(=O)CNC(=O)c1ccc2c(c1)-c1ccccc1C2(F)F)c1cc(C(=N)N)cs1` [Compound 4, (1S,3S,5S)—N—((R)-1-(4-carbamimidoylthiophen-2-yl)ethyl)-2-((9,9-difluoro-9H-fluorene-3-carbonyl)glycyl)-5-methyl-2-azabicyclo[3.1.0]hexane-3-carboxamide], the IC50 was under 100 nM.

In the case of `C[C@@H](NC(=O)[C@@H]1C[C@@H](OC(F)F)CN1C(=O)CNC(=O)c1ccc(Oc2ccc(C(F)(F)F)cc2)cc1)c1cc(C(=N)N)cs1` [Compound 5, (2S,4R)—N—((R)-1-(4-carbamimidoylthiophen-2-yl)ethyl)-4-(difluoromethoxy)-1-((4-(4-(trifluoromethyl)phenoxy)benzoyl)glycyl)pyrrolidine-2-carboxamide], the IC50 was under 100 nM.

Regarding `Cc1ccc(Oc2ccc(C(=O)NCC(=O)N3C[C@H](OC(F)F)C[C@H]3C(=O)N[C@H](C)c3cc(C(=N)N)cs3)cc2)cc1` [Compound 6, (2S,4R)—N—((R)-1-(4-carbamimidoylthiophen-2-yl)ethyl)-4-(difluoromethoxy)-1-((4-(p-tolyloxy)benzoyl)glycyl)pyrrolidine-2-carboxamide], the IC50 is under 100 nM.

Turning to `Cc1ccc(Oc2ccc(C(=O)NCC(=O)N3[C@H]4C[C@@]4(C)C[C@H]3C(=O)N[C@H](C)c3cc(C(=N)N)cs3)cc2)cc1` [Compound 7, (1S,3S,5S)—N—((R)-1-(4-carbamimidoylthiophen-2-yl)ethyl)-5-methyl-2-((4-(p-tolyloxy)benzoyl)glycyl)-2-azabicyclo[3.1.0]hexane-3-carboxamide], the IC50 was under 100 nM.

As to `C[C@@H](NC(=O)[C@@H]1C[C@@H](OC(F)F)CN1C(=O)CNC(=O)c1ccc(Oc2ccc(F)cc2)cc1)c1cc(C(=N)N)cs1` [Compound 8, (2S,4R)—N—((R)-1-(4-carbamimidoylthiophen-2-yl)ethyl)-4-(difluoromethoxy)-1-((4-(4-fluorophenoxy)benzoyl)glycyl)pyrrolidine-2-carboxamide], the IC50 is under 100 nM.

Regarding `C[C@@H](NC(=O)[C@@H]1C[C@@H](OC(F)F)CN1C(=O)CNC(=O)c1ccc2c(c1)-c1ccccc1C2(F)F)c1cc(C(=N)N)cs1` [Compound 9, (2S,4R)—N—((R)-1-(4-carbamimidoylthiophen-2-yl)ethyl)-1-((9,9-difluoro-9H-fluorene-3-carbonyl)glycyl)-4-(difluoromethoxy)pyrrolidine-2-carboxamide], the IC50 is under 100 nM.

On to `Cc1ccc(Oc2ccc(C(=O)NCC(=O)N3C[C@H](OC(F)F)C[C@H]3C(=O)NCc3cc(C(=N)N)cs3)cc2)cc1` [Compound 10, (2S,4R)—N-((4-carbamimidoylthiophen-2-yl)methyl)-4-(difluoromethoxy)-1-((4-(p-tolyloxy)benzoyl)glycyl)pyrrolidine-2-carboxamide], for which the IC50 is under 100 nM.

Take `C[C@@H](NC(=O)[C@@H]1C[C@](F)(CF)CN1C(=O)CNC(=O)c1ccc2c(c1)-c1ccccc1C2(F)F)c1cc(C(=N)N)cs1` [Compound 11, (2S,4R)—N-[(1R)-1-(4-carbamimidoylthiophen-2-yl)ethyl]-1-{2-[(9,9-difluorofluoren-3-yl)formamido]acetyl}-4-fluoro-4-(fluoromethyl) pyrrolidine-2-carboxamide]: the IC50 was under 100 nM.

For the molecule `C[C@@H](NC(=O)[C@@H]1C[C@](F)(CF)CN1C(=O)CNC(=O)c1ccc2c(c1)-c1ccccc1C2)c1cc(C(=N)N)cs1` [Compound 12, (2S,4R)—N-[(1R)-1-(4-carbamimidoylthiophen-2-yl)ethyl]-1-[2-(9H-fluoren-3-ylformamido)acetyl]-4-fluoro-4-(fluoromethyl)pyrrolidine-2-carboxamide], the IC50 was under 100 nM.

Turning to `C[C@@H](NC(=O)[C@@H]1C[C@](F)(CF)CN1C(=O)CNC(=O)c1ccc(Oc2ccc(F)cc2)cc1)c1cc(C(=N)N)cs1` [Compound 13], the half-maximal inhibitory concentration (IC50) is under 100 nM.

With `Cc1ccc(Oc2ccc(C(=O)NCC(=O)N3C[C@@](F)(CF)C[C@H]3C(=O)N[C@H](C)c3cc(C(=N)N)cs3)cc2)cc1` [Compound 14, (2S,4R)—N—((R)-1-(4-carbamimidoylthiophen-2-yl)ethyl)-4-fluoro-4-(fluoromethyl)-1-((4-(p-tolyloxy)benzoyl)glycyl)pyrrolidine-2-carboxamide], the IC50 is under 100 nM.

For the molecule `C[C@@H](NC(=O)[C@@H]1C[C@](F)(CF)CN1C(=O)CNC(=O)c1ccc(Oc2ccc(C(F)(F)F)cc2)cc1)c1cc(C(=N)N)cs1` [Compound 15, (2S,4R)—N-[(1R)-1-(4-carbamimidoylthiophen-2-yl)ethyl]-4-fluoro-4-(fluoromethyl)-1-[2-({4-[4-(trifluoromethyl)phenoxy]phenyl}formamido)acetyl]pyrrolidine-2-carboxamide], the IC50 was under 100 nM.

With `C[C@@H](NC(=O)[C@@H]1C[C@]2(C)C[C@@H]2N1C(=O)CNC(=O)c1ccc(Oc2ccc(F)cc2)cc1)c1cc(C(=N)N)cs1` [Compound 16, (1S,3S,5S)—N-[(1R)-1-(4-carbamimidoylthiophen-2-yl)ethyl]-2-(2-{[4-(4-fluorophenoxy)phenyl]formamido}acetyl)-5-methyl-2-azabicyclo[3.1.0]hexane-3-carboxamide], the IC50 is under 100 nM.

For `COC[C@@]1(F)C[C@@H](C(=O)N[C@H](C)c2cc(C(=N)N)cs2)N(C(=O)CNC(=O)c2ccc(Oc3ccc(F)cc3)cc2)C1` [Compound 17, (2S,4R)—N—((R)-1-(4-carbamimidoylthiophen-2-yl)ethyl)-4-fluoro-1-((4-(4-fluorophenoxy)benzoyl)glycyl)-4-(methoxymethyl)pyrrolidine-2-carboxamide], the IC50 is under 100 nM.

As to `COC[C@@]1(F)C[C@@H](C(=O)N[C@H](C)c2cc(C(=N)N)cs2)N(C(=O)CNC(=O)c2ccc(Oc3ccc(C(F)(F)F)cc3)cc2)C1` [Compound 18, (2S,4R)—N—((R)-1-(4-carbamimidoylthiophen-2-yl)ethyl)-4-fluoro-4-(methoxymethyl)-1-((4-(4-(trifluoromethyl)phenoxy)benzoyl)glycyl)pyrrolidine-2-carboxamide], the IC50 is under 100 nM.

As for `COC[C@@]1(F)C[C@@H](C(=O)N[C@H](C)c2cc(C(=N)N)cs2)N(C(=O)CNC(=O)c2ccc(Oc3ccc(C)cc3)cc2)C1` [Compound 19, (2S,4R)—N—((R)-1-(4-carbamimidoylthiophen-2-yl)ethyl)-4-fluoro-4-(methoxymethyl)-1-((4-(p-tolyloxy)benzoyl)glycyl)pyrrolidine-2-carboxamide], the IC50 was under 100 nM.

Consider `COC[C@@]1(F)C[C@@H](C(=O)N[C@H](C)c2cc(C(=N)N)cs2)N(C(=O)CNC(=O)c2ccc3c(c2)-c2ccccc2C3(F)F)C1` [Compound 20, (2S,4R)—N—((R)-1-(4-carbamimidoylthiophen-2-yl)ethyl)-1-((9,9-difluoro-9H-fluorene-3-carbonyl)glycyl)-4-fluoro-4-(methoxymethyl)pyrrolidine-2-carboxamide], for which the IC50 is under 100 nM.

As for `C[C@@H](NC(=O)[C@@H]1CC2(CN1C(=O)CNC(=O)c1ccc3c(c1)-c1ccccc1C3(F)F)OCCO2)c1cc(C(=N)N)cs1` [Compound 21, (S)—N—((R)-1-(4-carbamimidoylthiophen-2-yl)ethyl)-7-((9,9-difluoro-9H-fluorene-3-carbonyl)glycyl)-1,4-dioxa-7-azaspiro[4.4]nonane-8-carboxamide], the IC50 was under 100 nM.

Consider `Cc1ccc(Oc2ccc(C(=O)NCC(=O)N3CC4(C[C@H]3C(=O)N[C@H](C)c3cc(C(=N)N)cs3)OCCO4)cc2)cc1` [Compound 22, (S)—N—((R)-1-(4-carbamimidoylthiophen-2-yl)ethyl)-7-((4-(p-tolyloxy)benzoyl)glycyl)-1,4-dioxa-7-azaspiro[4.4]nonane-8-carboxamide], for which the IC50 is under 100 nM.

With `C[C@@H](NC(=O)[C@@H]1CC2(CN1C(=O)CNC(=O)c1ccc(Oc3ccc(F)cc3)cc1)OCCO2)c1cc(C(=N)N)cs1` [Compound 23, (S)—N—((R)-1-(4-carbamimidoylthiophen-2-yl)ethyl)-7-((4-(4-fluorophenoxy)benzoyl)glycyl)-1,4-dioxa-7-azaspiro[4.4]nonane-8-carboxamide], the IC50 is under 100 nM.

As for `Cc1cc(C(=O)NCC(=O)N2C[C@H](OC(F)F)C[C@H]2C(=O)N[C@H](C)c2cc(C(=N)N)cs2)ccc1Oc1ccccc1` [Compound 24, (2S,4R)—N—((R)-1-(4-carbamimidoylthiophen-2-yl)ethyl)-4-(difluoromethoxy)-1-((3-methyl-4-phenoxybenzoyl)glycyl)pyrrolidine-2-carboxamide], the IC50 was under 100 nM.

Turning to `Cc1ccc(Oc2ccc(C(=O)NCC(=O)N3[C@H]4C[C@@]4(C)C[C@H]3C(=O)N[C@H](C)c3cc(C(=N)N)cs3)cc2C)cc1` [Compound 25, (1S,3S,5S)—N—((R)-1-(4-carbamimidoylthiophen-2-yl)ethyl)-5-methyl-2-((3-methyl-4-(p-tolyloxy)benzoyl)glycyl)-2-azabicyclo[3.1.]hexane-3-carboxamide], the IC50 was under 100 nM.

The record behind these values is US20250346585A1 (Alexion Pharmaceuticals, Inc., priority 2022, published 2025).
